Drawing on US8586739B2, “Heterocyclic compounds and their uses” (Amgen Inc., priority 2007, dated 2013), this text covers IC50 for 40 compounds.

Usually IC50 stands for the concentration needed to halve the response being measured.

Structures are written as SMILES.

In one assay the test system is human B cells. Description: Human B cells proliferation stimulated by anti-IgM (3H thymidine). In kind it is cell-based. The following applies: Homo sapiens, B-cell, 72 h, purified human B cells, anti-Human IgM + CD40L-LZ. As for the experimental part: Human B Cells Proliferation stimulate by anti-IgM
Isolate PBMCs from Leukopac or from human fresh blood. Isolate human B cells by using Miltenyi protocol and B cell isolation kit II.—human B cells were Purified by using autoMACS® column.
Activation of Human B Cells
Use 96 well Flat bottom plate, plate 50000/well purified B cells in B cell proffer-ation medium (DMEM+5% FCS, 10 mM Hepes, 50 μM 2-mercaptoethanol); 150 μL medium contain 250 ng/mL CD40L-LZ recombinant protein (Amgen) and 2 μg/mL anti-Human IgM antibody (Jackson ImmunoReseach Lab.#109-006-129), mixed with 50 μL B cell medium containing PI3K inhibitors and incubate 72 h at 37° C. incubator. After 72 h, pulse labeling B cells with 0.5-1 uCi/well ^3H thymidine for overnight ˜18 h, and harvest cell using TOM harvester.
On to `C[C@H](Nc1ncnc2[nH]cnc12)c1cc2cccc(Cl)c2nc1-c1cscn1` [N-((1S)-1-(8-chloro-2-(1,3-thiazol-4-yl)-3-quinolinyl)ethyl)-9H-purin-6-amine], for which the IC50 amounted to 0.537 nM.

Regarding `C[C@@H](Nc1ncnc2[nH]cnc12)c1nc2cccc(Cl)c2nc1-c1cccc(F)c1` [N-((R)-1-(5-Chloro-3-(3-fluorophenyl)quinoxalin-2-yl)ethyl)-9H-purin-6-amine], the IC50 turned out to be 13.9 nM. With `Clc1cccc2cc(COc3ncnc4[nH]cnc34)c(-c3ccccc3)nc12` [8-chloro-2-phenyl-3((9H-purin-6-yloxy)methyl)quinoline], the half-maximal inhibitory concentration (IC50) is 81.4 nM. With `Clc1cccc2cc(CNc3ncnc4[nH]cnc34)c(-c3ccccc3-c3ccccc3)nc12` [N-((2-(2-biphenylyl)-8-chloro-3-quinolinyl)methyl)-9H-purin-6-amine], the IC50 stood at 165 nM. Turning to `CC(C)c1ncncc1-c1nc2c(Cl)cccc2cc1CNc1ncnc2[nH]cnc12` [N-((8-chloro-2-(4-(1-methylethyl)-5-pyrimidinyl)-3-quinolinyl)methyl)-9H-purin-6-amine], the IC50 amounted to 78.9 nM. As for `CCC[C@H](Nc1ncnc2[nH]cnc12)c1cc2cccc(Cl)c2nc1-c1cccc(F)c1` [N-((1S)-1-(8-chloro-2-(3-fluorophenyl)-3-quinolinyl)butyl)-9H-purin-6-amine], the 50% inhibitory concentration (IC50) was found to be 6.52 nM. For `C[C@H](Nc1ncnc2[nH]cnc12)c1cc2ccc(F)cc2nc1-c1cccc(F)n1` [N-((1S)-1-(7-fluoro-2-(6-fluoro-2-pyridinyl)-3-quinolinyl)ethyl)-9H-purin-6-amine], the IC50 amounted to 3.72 nM. On the same count and under the same terms, the same measure for `C[C@H](Nc1ncnc2[nH]cnc12)c1cc2cccc(Cl)c2nc1-c1cnccc1C(N)=O` [3-(8-chloro-3-((1S)-1-(9H-purin-6-ylamino)ethyl)-2-quinolinyl)-4-pyridinecarboxamide]: 4640 nM. Turning to `C[C@@H](Nc1ncnc2[nH]cnc12)c1nc2cccc(C(F)(F)F)c2nc1-c1ccccc1Cl` [N-((1R)-1-(3-(2-chlorophenyl)-5-(trifluoromethyl)-2-quinoxalinyl)ethyl)-9H-purin-6-amine], the IC50 turned out to be 53.4 nM. On the same count and under the same terms, the same measure for `Clc1ccccc1-c1nc2c(I)cccc2nc1CNc1ncnc2[nH]cnc12` [N-((3-(2-Chlorophenyl)-5-iodoquinoxalin-2-yl)methyl)-9H-purin-6-amine]: 88.4 nM. With `C[C@H](Nc1ncnc2[nH]cnc12)c1cc2cccc(Cl)c2nc1-c1cccnn1` [N-((1S)-1-(8-chloro-2-(3-pyridazinyl)-3-quinolinyl)ethyl)-9H-purin-6-amine], the IC50 was 18 nM. For `FC1CCCN(c2nc3c(Cl)cccc3cc2CNc2ncnc3[nH]cnc23)C1` (centres unmarked) [N-((8-chloro-2-(3-fluoro-1-piperidinyl)-3-quinolinyl)methyl)-9H-purin-6-amine], the IC50 amounted to 95.5 nM. For `CS(=O)(=O)c1cccc2nc(-c3ccccc3Cl)c(CNc3ncnc4[nH]cnc34)nc12` [N-((3-(2-chlorophenyl)-8-(methylsulfonyl)-2-quinoxalinyl)methyl)-9H-purin-6-amine], the IC50 stood at 2410 nM.

In the case of `Fc1ccc(Cl)c(-c2nc3c(Cl)cccc3cc2CNc2ncnc3[nH]cnc23)c1` [N-((8-chloro-2-(2-chloro-5-fluorophenyl)-3-quinolinyl)methyl)-9H-purin-6-amine], the IC50 is 38.4 nM.

On to `C[C@H](Nc1ncnc2[nH]cnc12)c1cc2cccc(Cl)c2nc1-c1cncs1` [N-((S)-1-(8-Chloro-2-(thiazol-5-yl)quinolin-3-yl)ethyl)-9H-purin-6-amine], for which the IC50 was determined as 21.9 nM.

Turning to `C[C@H](Nc1ncnc2[nH]cnc12)c1cc2cccc(C#N)c2nc1-c1ccccn1` [3-((1S)-1-(9H-purin-6-ylamino)ethyl)-2-(2-pyridinyl)-8-quinolinecarbonitrile], the IC50 came to 46.7 nM. In the case of `Cc1ncc(F)cc1-c1nc2c(Cl)cccc2cc1[C@H](C)Nc1ncnc2[nH]cnc12` [N-((1S)-1-(8-chloro-2-(5-fluoro-2-methyl-3-pyridinyl)-3-quinolinyl)ethyl)-9H-purin-6-amine], the IC50 turned out to be 16.9 nM. As for `Clc1cccc2cc(CNc3ncnc4[nH]cnc34)c(-c3ccccc3)nc12` [N-((8-chloro-2-phenyl-3-quinolinyl)methyl)-9H-purin-6-amine], the IC50 is 219 nM. With `C[C@H](Nc1ncnc2[nH]cnc12)c1cc2cccc(Cl)c2nc1-c1cccnc1` [N-((1S)-1-(8-chloro-2-(3-pyridinyl)-3-quinolinyl)ethyl)-9H-purin-6-amine], the IC50 worked out at 3.44 nM. For `C[C@H](Nc1ncnc2[nH]cnc12)c1cc2cccc(Cl)c2nc1-c1cc(F)cc(F)c1` [N-((1S)-1-(8-chloro-2-(3,5-difluorophenyl)-3-quinolinyl)ethyl)-9H-purin-6-amine], the IC50 was found to be 5.04 nM. `FC(F)(F)c1ccccc1-c1nc2c(Cl)cccc2nc1CNc1ncnc2[nH]cnc12` [N-((5-chloro-3-(2-(trifluoromethyl)phenyl)-2-quinoxalinyl)methyl)-9H-purin-6-amine]: the IC50 came to 41.8 nM. For `C[C@H](Nc1ncnc2[nH]cnc12)c1cc2ccc(F)cc2nc1-c1cc(F)cc(F)c1` [N-((1S)-1-(2-(3,5-difluorophenyl)-7-fluoro-3-quinolinyl)ethyl)-9H-purin-6-amine], the concentration for half-maximal inhibition (IC50) is 5.15 nM.

Consider `CCc1ncccc1-c1nc2c(Cl)cccc2cc1[C@H](C)Nc1ncnc2[nH]cnc12` [N-((1S)-1-(8-chloro-2-(2-ethyl-3-pyridinyl)-3-quinolinyl)ethyl)-9H-purin-6-amine], for which the IC50 is 3.31 nM.

As for `C[C@H](Nc1ncnc2[nH]cnc12)c1nc2cccc(Cl)c2nc1-c1cc(F)ccc1Cl` [N-((1S)-1-(5-chloro-3-(2-chloro-5-fluorophenyl)-2-quinoxalinyl)ethyl)-9H-purin-6-amine], the IC50 was 89.3 nM. Consider `Cc1cccnc1-c1nc2c(Cl)cccc2cc1[C@H](C)Nc1ncnc2[nH]cnc12` [N-((1S)-1-(8-chloro-2-(3-methyl-2-pyridinyl)-3-quinolinyl)ethyl)-9H-purin-6-amine], for which the IC50 was 33.2 nM. Still for that read-out and setting: the same measure for `Clc1ccccc1-c1nc2c(Cl)cccc2nc1CNc1ncnc2[nH]cnc12` [N-((5-chloro-3-(2-chlorophenyl)-2-quinoxalinyl)methyl)-9H-purin-6-amine]: 82.5 nM; for `Oc1ccc(F)cc1-c1nc2c(Cl)cccc2cc1CNc1ncnc2[nH]cnc12` [2-(8-chloro-3-((9H-purin-6-ylamino)methyl)-2-quinolinyl)-4-fluorophenol]: 819 nM; for `Fc1cccc2nc(CNc3ncnc4[nH]cnc34)c(-c3ccccc3Cl)nc12` [N-((3-(2-Chlorophenyl)-5-fluoroquinoxalin-2-yl)methyl)-9H-purin-6-amine]: 299 nM.

On to `C[C@H](Nc1ncnc2[nH]cnc12)c1cc2cccc(-c3cccc(F)c3)c2nc1-c1cccc(F)c1` [N-((1S)-1-(2,8-bis(3-fluorophenyl)-3-quinolinyl)ethyl)-9H-purin-6-amine], for which the concentration for half-maximal inhibition (IC50) turned out to be 1.06 nM. As for `C[C@H](Nc1ncnc2[nH]cnc12)c1cc2cccc(Cl)c2nc1-c1ccccc1Cl` [N-((1S)-1-(8-chloro-2-(2-chlorophenyl)-3-quinolinyl)ethyl)-9H-purin-6-amine], the IC50 was determined as 3.6 nM.

For `C[C@H](Nc1ncnc2nc[nH]c12)c1cc2cccc(F)c2nc1-c1cccc(F)c1` [N-((S)-1-(8-fluoro-2-(3-fluorophenyl)quinolin-3-yl)ethyl)-7H-purin-6-amine], the IC50 was determined as 5.15 nM. The same measure, in the same setting: in the case of `Fc1cccc(-c2nc3c(Cl)cccc3nc2CNc2ncnc3[nH]cnc23)c1` [N-((5-Chloro-3-(3-fluorophenyl)quinoxalin-2-yl)methyl)-9H-purin-6-amine] it was 71.9 nM; in that of `C[C@H](Nc1ncnc2[nH]cnc12)c1cc2cccc(Cl)c2nc1-c1cccc(Cl)c1` [N-((1S)-1-(8-chloro-2-(3-chlorophenyl)-3-quinolinyl)ethyl)-9H-purin-6-amine], 5.52 nM; in that of `CC(C)Cc1ncc(F)cc1-c1nc2c(Cl)cccc2cc1[C@H](C)Nc1ncnc2[nH]cnc12` [N-((1S)-1-(8-chloro-2-(5-fluoro-2-(2-methylpropyl)-3-pyridinyl)-3-quinolinyl)ethyl)-9H-purin-6-amine], 15.5 nM. Turning to `C[C@H](Nc1ncnc2[nH]cnc12)c1cc2cccc(Cl)c2nc1-c1cccc(F)c1` [N-((1S)-1-(8-chloro-2-(3-fluorophenyl)-3-quinolinyl)ethyl)-9H-purin-6-amine], the IC50 was found to be 2.42 nM.

Turning to `Clc1cccc2cc(CNc3ncnc4[nH]cnc34)c(-c3ccns3)nc12` [N-((8-chloro-2-(5-isothiazolyl)-3-quinolinyl)methyl)-9H-purin-6-amine], the IC50 was 65.6 nM. Take `C[C@H](Nc1nc(F)nc2[nH]cnc12)c1cc2cccc(Cl)c2nc1-c1ccccn1` [N-((1S)-1-(8-chloro-2-(2-pyridinyl)-3-quinolinyl)ethyl)-2-fluoro-9H-purin-6-amine]: the IC50 stood at 14 nM. Same read-out and setting: in the case of `Fc1cc(F)cc(-c2nc3c(Cl)cccc3cc2CNc2ncnc3[nH]cnc23)c1` [N-((8-chloro-2-(3,5-difluorophenyl)-3-quinolinyl)methyl)-9H-purin-6-amine] it was 56 nM. On the same count and under the same terms, the same measure for `Nc1nc(NCc2cc3cccc(Cl)c3nc2-c2ccccc2Cl)c2nc[nH]c2n1` [N6-((8-chloro-2-(2-chlorophenyl)-3-quinolinyl)methyl)-9H-purine-2,6-diamine]: 8.9 nM; for `COc1nc(-c2nc3c(Cl)cccc3cc2[C@H](C)Nc2ncnc3[nH]cnc23)cs1` [N-((1S)-1-(8-chloro-2-(2-methoxy-1,3-thiazol-4-yl)-3-quinolinyl)ethyl)-9H-purin-6-amine]: 17.5 nM.

The assay is the same for the next values; noted with them: Homo sapiens, B-cell, purified human B cells, anti-Human IgM + CD40L-LZ, 72 h.
With `C[C@H](Nc1ncnc2[nH]cnc12)c1cc2cccc(Cl)c2nc1-c1cc(F)cc(F)c1` [N-((1S)-1-(8-chloro-2-(3,5-difluorophenyl)-3-quinolinyl)ethyl)-9H-purin-6-amine], the IC50 was 5.04 nM.
